# Reference: ChEMBL document CHEMBL1914436, “Synthesis and in vivo evaluation of cyclic diaminopropane BACE-1 inhibitors” (Bioorg Med Chem Lett, 2011)
# Activity calls are given as the source filed them. The calls are words filed in the database; no cut-off is given here.
# What was measured:
# Beta-secretase 1 [1] = molecular target: T1, Beta-secretase 1 (Homo sapiens, UniProt P56817); assay: Inhibition of BACE-1
# Beta-secretase 1 [2] = molecular target: T1, Beta-secretase 1; assay: Inhibition of BACE-1 in human HEK293 cells overexpressing APP 695 swedish mutation assessed as inhibition of amyloid beta (1 to 40) production by immunoprecipitation assay; type: cell-based
# Beta-secretase 1 [3] = molecular target: T1, Beta-secretase 1; assay: Displacement of [3H]BMS-599240 from recombinant human BACE-1
# Beta-secretase 1 [4] = molecular target: T1, Beta-secretase 1; assay: Inhibition of BACE-1 in human HEK293 cells overexpressing APP 695 swedish mutation assessed as inhibition of amyloid beta (1 to 40) production by ELISA method; type: cell-based
# [5] = Permeability from apical to basolateral side of human Caco2 cells; type: ADME, cell-based; conditions: Caco-2, read-out: permeability
# [6] = Efflux ratio of permeability from basolateral to apical side to apical to basolateral side of human Caco2 cells; type: ADME, cell-based; conditions: Caco-2
# Plasma [7] = assay: Drug level in rat plasma at 30 mg/kg, ip; type: ADME, organism-based; parameters: dose 30 mg/kg, route intraperitoneal; conditions: in vivo, read-out: Drug uptake
# [8] = Fraction unbound in rat plasma at 30 mg/kg, ip; type: ADME, organism-based; parameters: dose 30 mg/kg, route intraperitoneal
# Rattus norvegicus [9] = assay: Antialzheimer activity in rat assessed as reduction in brain amyloid beta (1 to 40) level up to 100 mg/kg, ip measured at 5 hrs post-dose; type: functional, organism-based; parameters: dose 100 mg/kg
# Brain [10] = assay: Drug level in rat brain at 100 mg/kg, ip; type: ADME, organism-based; parameters: dose 100 mg/kg, route intraperitoneal; conditions: in vivo, read-out: Drug uptake
# Plasma [11] = assay: Antialzheimer activity in ip dosed rat assessed as reduction in plasma amyloid beta (1 to 40) level measured at 5 hrs post-dose; type: functional
# [12] = Permeability from basolateral to apical side of human Caco2 cells; type: ADME, cell-based; conditions: Caco-2, read-out: permeability
# [13] = Ratio of drug level in brain to plasma in rat at 100 mg/kg, ip at 5 hrs; type: ADME, organism-based; parameters: dose 100 mg/kg, route intraperitoneal; conditions: brain and plasma, read-out: BPR
# [14] = Fraction unbound in sc dosed mouse plasma; type: ADME, organism-based
# Brain [15] = assay: Drug level in rat brain at 10 mg/kg, sc; type: ADME, organism-based; parameters: dose 10 mg/kg, route subcutaneous; conditions: in vivo, read-out: Drug uptake
# Brain [16] = assay: Drug level in rat brain at 3 mg/kg, sc; type: ADME, organism-based; parameters: dose 3 mg/kg, route subcutaneous; conditions: in vivo, read-out: Drug uptake
# Mus musculus [17] = assay: Antialzheimer activity in wild type mouse brain assessed as reduction in amyloid beta (1 to 40) level up to 100 mg/kg, sc; type: functional, organism-based; parameters: dose 100 mg/kg
# [18] = Ratio of drug level in brain to plasma in rat at 100 mg/kg, sc; type: ADME, organism-based; parameters: dose 100 mg/kg, route subcutaneous; conditions: brain and plasma, read-out: BPR
# [19] = Ratio of drug level in brain to plasma in rat at 10 mg/kg, sc; type: ADME, organism-based; parameters: dose 10 mg/kg, route subcutaneous; conditions: brain and plasma, read-out: BPR
# [20] = Ratio of drug level in brain to plasma in rat at 3 mg/kg, sc; type: ADME, organism-based; parameters: dose 3 mg/kg, route subcutaneous; conditions: brain and plasma, read-out: BPR
# Rattus norvegicus [21] = assay: Antialzheimer activity in rat brain assessed as amyloid beta (1 to 40) level at 3 mg/kg, sc relative to vehicle treated control; type: functional; conditions: route subcutaneous
# Rattus norvegicus [22] = assay: Antialzheimer activity in rat plasma assessed as amyloid beta (1 to 40) level at 100 mg/kg, sc relative to vehicle treated control; type: functional; conditions: route subcutaneous
# Rattus norvegicus [23] = assay: Antialzheimer activity in rat brain assessed as amyloid beta (1 to 40) level at 10 mg/kg, sc relative to vehicle treated control; type: functional; conditions: route subcutaneous
# Plasma [24] = assay: Total plasma concentration in rat at 3 mg/kg, sc; type: ADME, organism-based; parameters: dose 3 mg/kg, route subcutaneous; conditions: in vivo
# Plasma [25] = assay: Total plasma concentration in rat at 100 mg/kg, sc; type: ADME, organism-based; parameters: dose 100 mg/kg, route subcutaneous; conditions: in vivo
# Rattus norvegicus [26] = assay: Antialzheimer activity in rat plasma assessed as amyloid beta (1 to 40) level at 3 mg/kg, sc relative to vehicle treated control; type: functional; conditions: route subcutaneous
# Rattus norvegicus [27] = assay: Antialzheimer activity in rat plasma assessed as reduction in amyloid beta (1 to 40) level at 3 mg/kg, sc relative to vehicle treated control; type: functional; parameters: scale not given: the % may be the effect or the level left; conditions: route subcutaneous
# Rattus norvegicus [28] = assay: Antialzheimer activity in rat brain assessed as amyloid beta (1 to 40) level at 100 mg/kg, sc relative to vehicle treated control; type: functional; conditions: route subcutaneous
# [29] = Fraction unbound in sc dosed rat plasma; type: ADME, organism-based
# Mus musculus [30] = assay: Antialzheimer activity in sc dosed P-gp knockout mouse plasma assessed as reduction in amyloid beta (1 to 40) level after 5 hrs by ELISA; type: functional
# Mus musculus [31] = assay: Antialzheimer activity in sc dosed P-gp knockout mouse brain assessed as reduction in amyloid beta (1 to 40) level after 5 hrs by ELISA; type: functional
# Plasma [32] = assay: Total plasma concentration in rat at 10 mg/kg, sc; type: ADME, organism-based; parameters: dose 10 mg/kg, route subcutaneous; conditions: in vivo
# Brain [33] = assay: Drug level in rat brain at 100 mg/kg, sc; type: ADME, organism-based; parameters: dose 100 mg/kg, route subcutaneous; conditions: in vivo, read-out: Drug uptake
# Rattus norvegicus [34] = assay: Antialzheimer activity in rat plasma assessed as amyloid beta (1 to 40) level at 10 mg/kg, sc relative to vehicle treated control; type: functional; conditions: route subcutaneous
# T1 sequence (P56817 whole entry): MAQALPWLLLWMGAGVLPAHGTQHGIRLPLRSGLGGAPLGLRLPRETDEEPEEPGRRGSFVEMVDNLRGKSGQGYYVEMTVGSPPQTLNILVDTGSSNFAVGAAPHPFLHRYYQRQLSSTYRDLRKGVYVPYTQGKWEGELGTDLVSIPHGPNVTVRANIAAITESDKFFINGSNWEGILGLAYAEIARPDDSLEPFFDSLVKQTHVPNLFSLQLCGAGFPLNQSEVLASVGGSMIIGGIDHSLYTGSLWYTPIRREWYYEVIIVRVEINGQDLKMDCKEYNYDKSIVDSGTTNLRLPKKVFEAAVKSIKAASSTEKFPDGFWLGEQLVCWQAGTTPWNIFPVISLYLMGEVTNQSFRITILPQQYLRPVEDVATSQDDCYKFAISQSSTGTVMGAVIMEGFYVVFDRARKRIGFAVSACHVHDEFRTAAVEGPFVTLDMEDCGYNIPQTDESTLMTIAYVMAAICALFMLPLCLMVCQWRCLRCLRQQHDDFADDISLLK
smiles,measurement,setting,value
CCCN(CCC)C(=O)c1cccc(C(=O)N[C@@H](Cc2cc(F)cc(F)c2)[C@H](O)[C@H]2Cc3ccccc3CN2)c1 (stereo in doubt; 15a),IC50,Beta-secretase 1 [1],1100 nM
CCC(C)[C@@]1(NC(C)=O)CCN([C@@H](CCc2ccccc2)C(=O)N[C@@H](Cc2cc(F)cc(F)c2)[C@H](O)[C@H]2C[C@@H](S(=O)(=O)c3ccccc3)CN2)C1=O (stereo partly drawn),IC50,Beta-secretase 1 [2],12 nM
CCC(C)[C@@]1(NC(C)=O)CCN([C@@H](CCc2ccccc2)C(=O)N[C@@H](Cc2cc(F)cc(F)c2)[C@H](O)C2Cc3cccc(O)c3CN2)C1=O (stereo partly drawn),IC50,Beta-secretase 1 [1],870 nM
CC[C@@H](C)[C@H](N)C(=O)N[C@@H](CCc1ccccc1)C(=O)N[C@@H](CC(C)C)[C@@H](O)C[C@@H](C)C(=O)NCCCCc1ccccc1,IC50,Beta-secretase 1 [1],88 nM
CCCC[C@@H]1CCN([C@@H](C)C(=O)N[C@@H](Cc2cc(F)cc(F)c2)[C@H](O)[C@H]2C[C@@H](S(=O)(=O)CCC)CN2)C1=O,IC50,Beta-secretase 1 [2],> 330 nM
CCC(C)[C@@]1(NC(C)=O)CCN([C@@H](CCc2ccccc2)C(=O)N[C@@H](Cc2cc(F)cc(F)c2)[C@H](O)[C@@H]2Cc3ccccc3CN2)C1=O (stereo partly drawn),IC50,Beta-secretase 1 [1],600 nM
CCCN(CCC)C(=O)c1cc(C(=O)N[C@@H](Cc2cc(F)cc(F)c2)[C@H](O)[C@H]2C[C@@H](S(=O)(=O)CCC)CN2)cc(-c2ncco2)c1,IC50,Beta-secretase 1 [2],68 nM
CCCC[C@H]1CCN([C@@H](CCc2ccccc2)C(=O)N[C@@H](Cc2cc(F)cc(F)c2)[C@H](O)[C@H]2Cc3ccccc3CN2)C1=O,IC50,Beta-secretase 1 [1],1000 nM
CCC(C)[C@@]1(NC(C)=O)CCN([C@@H](CCc2ccccc2)C(=O)N[C@@H](Cc2cc(F)cc(F)c2)[C@H](O)C2Cc3ccccc3CN2)C1=O (stereo partly drawn),IC50,Beta-secretase 1 [1],54 nM
same,IC50,Beta-secretase 1 [2],110 nM
CCCOc1cccc2c1CNC([C@@H](O)[C@H](Cc1cc(F)cc(F)c1)NC(=O)[C@H](CCc1ccccc1)N1CC[C@](NC(C)=O)(C(C)CC)C1=O)C2 (stereo partly drawn),IC50,Beta-secretase 1 [1],17 nM
same,IC50,Beta-secretase 1 [2],140 nM
CCCS[C@H]1CN[C@@H]([C@@H](O)[C@H](Cc2cc(F)cc(F)c2)NC(=O)[C@H](CCc2ccccc2)N2CC[C@](NC(C)=O)(C(C)CC)C2=O)C1 (stereo partly drawn),IC50,Beta-secretase 1 [2],15 nM
CCC(C)[C@@]1(NC(C)=O)CCN([C@@H](CCc2ccccc2)C(=O)N[C@@H](Cc2cc(F)cc(F)c2)[C@H](O)[C@H]2C[C@@H](S(=O)(=O)Cc3ccc(F)cc3)CN2)C1=O (stereo partly drawn),IC50,Beta-secretase 1 [2],3 nM
CCC(C)[C@@]1(NC(C)=O)CCN([C@@H](CCc2ccccc2)C(=O)N[C@@H](Cc2ccccc2)[C@H](O)CNCc2cccc(OC)c2)C1=O (stereo partly drawn),IC50,Beta-secretase 1 [3],5 nM
same,IC50,Beta-secretase 1 [4],11 nM
CCCS(=O)(=O)[C@@H]1CN[C@@H]([C@@H](O)[C@H](Cc2cc(F)cc(F)c2)NC(=O)[C@H](CCc2ccccc2)N2CC[C@](NC(C)=O)(C(C)CC)C2=O)C1 (stereo partly drawn),IC50,Beta-secretase 1 [2],45 nM
CC(=O)N[C@]1(CC(C)C)CCN([C@@H](CCc2ccccc2)C(=O)N[C@@H](Cc2cc(F)cc(F)c2)[C@H](O)C2Cc3ccccc3CN2)C1=O (stereo partly drawn),IC50,Beta-secretase 1 [1],8 nM
same,IC50,Beta-secretase 1 [2],10 nM
CCC(C)[C@@]1(NC(C)=O)CCN([C@@H](CCc2ccccc2)C(=O)N[C@@H](Cc2cc(F)cc(F)c2)[C@H](O)C2Cc3cccc(OC)c3CN2)C1=O (stereo partly drawn),IC50,Beta-secretase 1 [1],4 nM
same,IC50,Beta-secretase 1 [2],20 nM
CCCC[C@H]1CCN([C@@H](C)C(=O)N[C@@H](Cc2cc(F)cc(F)c2)[C@H](O)[C@H]2Cc3ccccc3CN2)C1=O,IC50,Beta-secretase 1 [1],1600 nM
CCC(C)[C@@]1(NC(C)=O)CCN([C@@H](CCc2ccccc2)C(=O)N[C@@H](Cc2cc(F)cc(F)c2)[C@H](O)[C@@H]2Cc3cccc(OC)c3CN2)C1=O (stereo partly drawn),IC50,Beta-secretase 1 [1],140 nM
CCCN(CCC)C(=O)c1cccc(C(=O)N[C@@H](Cc2cc(F)cc(F)c2)[C@H](O)[C@H]2Cc3ccccc3CN2)c1 (stereo in doubt; 15b),IC50,Beta-secretase 1 [1],1600 nM
CCC(C)[C@@]1(NC(C)=O)CCN([C@@H](CCc2ccccc2)C(=O)N[C@@H](Cc2cc(F)cc(F)c2)[C@H](O)CNCc2cccc(OC)c2)C1=O (stereo partly drawn),IC50,Beta-secretase 1 [3],2 nM
same,Papp A→B,[5],7.5 ×10⁻⁶ cm/s
same,efflux ratio,[6],1.5
same,concentration,Plasma [7],3700 nM
same,fraction unbound,[8],0.011
same,IC50,Beta-secretase 1 [4],3 nM
same,Activity,Rattus norvegicus [9],inactive
same,concentration,Brain [10],113 nM
same,Activity,Plasma [11],Dose-dependent effect
same,ED50,Plasma [11],30 mg/kg
same,Papp B→A,[12],11.4 ×10⁻⁶ cm/s
same,Kp at 5 h,[13],< 0.05
CCC(C)[C@@]1(N)CCN([C@@H](CCc2ccccc2)C(=O)N[C@@H](CC(C)C)[C@@H](O)C[C@@H](C)C(=O)NCCCCc2ccccc2)C1=O (stereo partly drawn),IC50,Beta-secretase 1 [1],141 nM
CCCCN(C)C(=O)n1cc(C(=O)N[C@@H](Cc2cc(F)cc(F)c2)[C@H](O)[C@H]2Cc3ccccc3CN2)c2cccnc21,IC50,Beta-secretase 1 [1],1200 nM
CCCS(=O)(=O)[C@H]1CN[C@@H]([C@@H](O)[C@H](Cc2cc(F)cc(F)c2)NC(=O)[C@H](CCc2ccccc2)N2CC[C@](NC(C)=O)(C(C)CC)C2=O)C1 (stereo partly drawn),Papp A→B,[5],< 1.5 ×10⁻⁶ cm/s
same,fraction unbound,[14],0.24
same,concentration,Brain [15],78 nM
same,concentration,Brain [16],46 nM
same,Activity,Mus musculus [17],inactive
same,efflux ratio,[6],> 4
same,Kp,[18],0.05
same,Kp,[19],0.11
same,IC50,Beta-secretase 1 [2],5 nM
same,Kp,[20],0.32
same,Activity,Rattus norvegicus [21],85%
same,Activity,Rattus norvegicus [22],15%
same,Activity,Rattus norvegicus [23],92%
same,concentration,Plasma [24],160 nM
same,concentration,Plasma [25],5800 nM
same,Activity,Rattus norvegicus [26],28%
same,Activity,Rattus norvegicus [27],72%
same,Activity,Rattus norvegicus [28],91%
same,Papp B→A,[12],5.8 ×10⁻⁶ cm/s
same,fraction unbound,[29],0.3
same,ED50,Mus musculus [30],30 mg/kg
same,ED50,Mus musculus [31],50 mg/kg
same,concentration,Plasma [32],740 nM
same,concentration,Brain [33],260 nM
same,Activity,Rattus norvegicus [34],10%
